Experimental data taken from patent publication US4977189A, “Substituted guanidinedicarbonyl derivatives” (American Cyanamid Company, priority 1988, dated 1990).
Several values for one entry are separate records, joined by “and”; a condition that tells them apart may be missing. Equal entries are not always repeated.

What was measured:
Royal Hart mice = assay: Hypoxic Survival Test; format: in vivo, mouse (Royal Hart); conditions: Mus musculus, ip, 5 min, 30 minutes prior, 10% oxygen, survival after 5 minutes, read-out: % Survivors; for responders at 50 mg/kg: 50 mg/kg intraperitoneally; for responders at 100 mg/kg: 100 mg/kg intraperitoneally
Experimental: A useful in vivo test that measures how effectively central nervous system-acting drugs enhance survival in a hypoxic environment, presumably by improving the ratio of energy supply to demand is known as the Hypoxic Survival Test. […] Drugs are tested by intraperitoneally injecting groups of mice 30 minutes prior to placing them in a hypoxic mixture and measuring survival. The rationale of this test is that drugs which enhance survival under hypoxic conditions without concomitant, depression or sedative side effects, may do so by enhancing energy metabolism, or by preserving normal brain function under conditions of reduced energy metabolism. Given the dependence of the brain on a constant supply of energy, drugs which have this property may have many far-reaching therapeutic indications, including recovery from stroke and closed head injury, as well as reducing the deleterious effects of the aging central nervous system.
Groups of 20 Royal Hart mice (6 weeks of age) are injected intraperitoneally with test compound (1-200 mg/kg) 30 minutes prior to placing them in a hypoxic mixture (10% oxygen in 90% […]) and measuring survival after 5 minutes.
A separate group of 20 mice is injected intraperitoneally with saline solution (0.01 cc/g of body weight) and processed as described above.
Still another group of 20 mice is injected intraperitoneally with 0.125 mg/kg of physostigmine and processed as described above.

[1] = test system: Brain-Specific Receptors (3H-benzodiazepine binding); assay: Inhibition of the Binding of 3H-Benzodiazepine to Brain-Specific Receptors of Rats; parameters: species or system rat (male albino, Wistar strain; whole cortex); conditions: 3H-diazepam (1.5 nM) or 3H-flunitrazepam (1.0 nM); rat cortex P2-fraction; 30 minutes in ice; test concentration not given
Text: A test utilized for the determination of anxiolytic activity is the measurement of the ability of test compounds to inhibit the binding of tritiated benzodiazepines to brain-specific recptors of warm-blooded animals. A modification of the method described by R. F. Squires, et al., Nature, 266, No. 21, pg 732 (April, 1977) and H. Mohler, et al., Science, 198, pg 849 (1977) was employed.
Male albino rats (Wistar strain, weighing 150-200 g each) were used. The test compounds were solubilized in either dimethylformamide, acetic acid, ethanol or hydrochloric acid.
Whole cortex of rats was homogenized gently in 20 volumes of ice-cold 0.32M sucrose, centrifuged twice at 1000 g for 10 minutes and then recentrifuged at 30,000 g for 20 minutes to produce a crude P2 -synaptosomal fraction. The P2 -fraction was either: (1) resuspended in twice the original volume in hypotonic 50 mM Tris.HCl (pH 7.4), or (2) resuspended in one-half the original volume in hypotonic 10 mM Tris.HCl (pH 7.4) and frozen (-20° C.) until time of use. Frozen P2 preparations were thawed and resuspended in four times the original homogenizing volume at time of assay.
The binding assay consisted of 300 μl of the P2 -fraction suspension (0.2-0.4 mg protein), 100 μl of test drug and 100 μl of ^3 H-diazepam (1.5 nM, final concentration) or ^3 H-flunitrazepam (1.0 nM, final concentration) which was added to 1.5 ml of 50 mM Tris.HCl (pH 7.4). Non-specific binding controls and total binding controls d 100 μl of diazepam (3 μM final concentration) and 100 μl of deionized water, respectively, in place of the test compound. Incubation for 30 minutes proceeded in ice and was terminated by filtration, under vacuum, through glass fiber filters. The filters were washed twice with 5 ml of ice-cold 50 mM Tris.HCl (pH 7.4) and placed in scintillation vials. After drying at 50°-60° C. for 30 minutes, 10 ml of diluent was added and the radioactivity determined in a scintillation counter.
Inhibition of binding was calculated by the difference between total binding and binding in the presence of test compound, divided by the total binding, X 100.

Swiss-Webster mice = assay: Passive Avoidance Anoxic Induced Amnesia Test; format: in vivo, mouse (Swiss-Webster, middle-aged); conditions: 50 mg/kg intraperitoneally, 30 minutes prior to training and testing; latency vs saline control; 30% considered active
Text: Another in vivo test associated with decreased neural function in mammals is the Passive-Avoidance Anoxic-Induced-Amnesia Test. This test is used to determine the attenuation of anoxic induced amnesia in mice treated with drug, as compared to saline treated control animals with no drug.
A shock-motivated, single trial, step-through passive avoidance procedure is used. Groups of 25 Swiss-Webster, middle-aged mice (9 months of age) are placed singly in the front chamber of a 2-chamber box and are allowed to voluntarily cross into the rear chamber. As soon as the mouse enters the rear chamber, a door automatically traps the animal and a mild electric shock (0.4 mA for 4 seconds) is delivered to its feet. Following the foot shock, the mice are initially placed in an anoxic environment (0% oxygen) for 12 seconds, which quickly induces unconsciousness. They are then placed in a hypoxic environment (15% oxygen) for four minutes which prolongs the oxygen deprived state, maintaining unconsciousness. All testing is performed 24 hours later, and in all cases the mice appear fully recovered from the previous anoxic/hypoxic treatment. All test compounds are administered intraperitoneally at a dose of 10-200 mg/kg, 30 minutes prior to training and testing. […]
The latency to enter the rear chamber is recorded for both training and testing. […]

| SMILES | responders at 50 mg/kg (Royal Hart mice) [%] | responders at 100 mg/kg (Royal Hart mice) [%] | % Inhibition [1] [%] | responders at 200 mg/kg (Royal Hart mice; 200 mg/kg intraperitoneally) [%] | % Improvement (Swiss-Webster mice) |
| --- | --- | --- | --- | --- | --- |
| Cc1cccc(C(=O)N=C(NC(=O)c2cccc(C)c2)Nc2ccc(C(N)=O)cc2)c1 [N,N'-[[4-(Aminocarbonyl)phenyl]carbonimidoyl]bis[3-methylbenzamide]] | 40 | 43 | 25 |  |  |
| NC(=O)c1ccc(N=C(NC(=O)c2ccccc2)NC(=O)c2ccccc2)cc1 [N,N'-[[[4-(Aminocarbonyl)phenyl]imino]methylene]bis[benzamide]] | 40 | 62 |  | 47 | 50% and 54% |
| COc1ccc(C(=O)NC(=NC(=O)c2cccs2)Nc2cccc(C(N)=O)c2)cc1 [N-[[[3-(Aminocarbonyl)phenyl]amino][(4-methoxybenzoyl)amino]methylene]-2-thiophenecarboxamide] | 45 | 45 | 19 |  |  |
| COc1ccc(C(=O)NC(=NC(=O)c2ccsc2)Nc2ccc(C(N)=O)cc2)cc1 [N-[[[4-(Aminocarbonyl)phenyl]amino][(4-methoxybenzoyl)amino]methylene]-3-thiophenecarboxamide] |  |  | 14 |  |  |
| Cc1ccc(C(=O)NC(=NC(=O)c2cccc(C)c2)Nc2ccc(C(N)=O)cc2)cc1 [N-[[[4-(Aminocarbonyl)phenyl]amino][(4-methylbenzoyl)amino]methylene]-3-methylbenzamide] |  |  | 85 |  |  |
